In patent publication US7160729B2, “Method for detecting diseases that are associated with defects of cystic fibrosis transmembrane conductance regulator (CFTR) protein” (priority 2002, dated 2007):
“Also recorded” adds a separate entry of the source.

Legend:
[1] = tested on: blood cells; CFTR dependent ion channels (SDAC); test: Hemolysis test of blood cells in 155 mM KCl medium with sDIDS activation of CFTR dependent ion channels; type: cell-based, human
Excerpt: This embodiment of the invention is based on the idea of evoking a lysis of the non-defective blood cells through activation of certain ion channels of the non-defective blood cells, where through anions flow into the non defective cell, for example: Iodide (I—), bromide (Br—), chloride (Cl—), fluoride (F—), gluconate (dextronic acid-anion), rhodanate (SCN—), and taurine. In defective blood cells these CFTR dependent ion channels don't exist or are not activatable. […] Then no positive pressure can build up in the cell; the blood cells with defective CFTR, especially the blood cells of CF Patients are not subject to lysis.
Since this CFTR dependent ion channel in non-defective blood cells allows the passage of anions such as for example: iodide, bromide, chloride, fluoride, gluconate and rhodanate as well as taurine, the differentiation between defective and non-defective blood cells can also take place in 155 mm solutions that contain iodide, bromide, fluoride, gluconate, rhodanate or taurine.
This embodiment is carried out analogously to the example mentioned above, only the blood cells are resuspended in a solution consisting of 155 mM KCl, 10 mM HEPES-Puffer (pH 7.4) and 100 μM sDIDS. This solution is incubated for 60 min under agitation at 37° C. and afterwards the released hemoglobin in the solution is determined.
Through the selected conditions of the preferred embodiment of the method according to the invention, chloride ions flow into non-defective blood cells via the anion channel activated by sDIDS into the blood cell. That leads to the accumulation of chloride ions in the blood cell and the water influx associated ion influx leads the good blood cell to burst. The hemolysis can be detected photometrically. This procedure may also be carried out with 10 mM HEPES-buffered solution (pH 7,4), that contains 155 mM iodide, bromide, fluoride, gluconate, or rhodanate as anions.

[2] = aqueous solution, room temperature; cited from earlier work
[3] = tested on: blood cells (reticulocytes and young erythrocytes); CFTR dependent ATP release; test: Hemolysis test of blood cells in 155 mM KCl medium with Gd3+ blockade of CFTR dependent volume regulation; type: cell-based, human
Excerpt: A non-defective cell is able to control and regulate its cell volume by interlinking mechanisms during the influx and the efflux of ions and water under physiological conditions. In non-defective blood cells, after application of a 155 mm potassium chloride medium chloride flows into the cell, inter alia through the CFTR. In one embodiment, the invention is based on the idea to inhibit the regulatory volume decrease (RVD) by influencing—for example by blockade—the CFTR-dependent ATP-transporting channels expressed in the cytomembrane. […] This is especially the case with CF blood cells, which due to the CFTR defect have no influx of chloride ions and whose RVD is independent of CFTR. Therefore, no positive pressure can build up in the cell; the blood cells with defective ion channels, especially the blood cells of CF patients undergo no lysis.
In patients suffering from mucoviscidosis with a homozygous ΔF508 mutation, the CFTR is not in the cytomembrane. With heterozygous mutations and other mutations than ΔF508, small quantities of functional CFTR can be in the membrane that transport chloride and are involved in volume regulation. The quantity of the functional CFTR molecules in the cytomembrane is inversely proportional to the severity of the illness. […] The contribution of the CFTR dependent RVD to the entire RVD is proportional to the quantity of the functional CFTR molecules within the membrane. […] Because the quantity of the functional CFTR molecules in the cytomembrane is inversely proportional to the severity of the illness in mucoviscodosis patients, the degree of the hemolysis after blockade of the CFTR dependent RVD is a measurement for the severity of the illness.
In accordance with the invention, first blood cells are extracted from whole blood by centrifugation. […] This solution is incubated for 60 min under agitation at 37° C. and afterwards the released hemoglobin in the solution is determined. […] The hemolysis is determined by visual examination and is quantified by absorption measurement with a wave length of 546 nm. […]

[4] = tested on: Calu-3 cells (human respiratory tract epithelium cell line); test: Patch-clamp, whole-cell configuration; type: cell-based; conditions: Calu-3, whole-cell, -90 to +10 mV
Description: During the experimental development of the test, it is shown that the observed reaction of the red blood cells can not be explained by the mechanisms known in the literature. The blood cell reactions are only explainable by the existence of a channel proteins, which is not yet known in literature.
In the whole-cell-configuration of the patch-clamp technology, the transmembrane current of a cell is measured with a pre-determined potential. The endocellular potential was maintained for 0.5 seconds in each case at values between −90 to +10 mV and increased in 10 mV intervals (8.d). The currents arising in a cell with this voltage range are presented in 8a–8c. In 8a, the base current of an untreated cell is shown (control). Through treatment with sDIDS, the conductivity of the cytomembrane of this cell increases together with the current (8b). After sDIDS was removed from the experiment (post control), the conductivity of the cytomembrane of this cell decreases, together with the current (8c). In 8e, the current is plotted against the applied potential, so that the slope of the curve is a measurement of the conductivity.

## Nc1ccc(CCc2ccc(N=C=S)cc2S(=O)(=O)O)c(S(=O)(=O)[O-])c1.[Na+] [4-amino-4′isothiocyanato-dihydrostilbene-2,2′-disulfonic acid, Na^+-salt]
[1]
  behaviour compared with sDIDS: behaves like sDIDS

## O=S(=O)([O-])c1cc(N=C=S)ccc1C=Cc1ccc(N=C=S)cc1S(=O)(=O)[O-].[Na+].[Na+] [DIDS, 4,4′-diisothiocyanato-stilbene-2,2′-disulfonic acid, sodium salt]
[2]
  time of hydrolysis to 4-amino-4′-isothiocyanatostilbene-2,2′-disulfonic acid: within a week

## [Cl][Gd]([Cl])[Cl] [Gd^3+, gadolinium chloride]
[3]; blood of 22 CF patients
  degree of hemolysis after Gd^3+ application: only a slight increase
[3]; blood of 87 healthy volunteers
  degree of hemolysis after addition of Gd^3+: unambiguous increase
[3]; umbilical cord blood of 59 newborns
  degree of hemolysis after addition of Gd^3+: unambiguous increase

## CC(=O)Nc1ccc(C=Cc2ccc(N=C=S)cc2S(=O)(=O)O)c(S(=O)(=O)O)c1 [SITS, 4-acetamido-4′-isothiocyanato-stilbene-2,2′-disulfonic acid]
[2]
  time of hydrolysis to 4-amino-4′-isothiocyanatostilbene-2,2′-disulfonic acid: within a week

## Nc1ccc(C=Cc2ccc(N=C=S)cc2S(=O)(=O)O)c(S(=O)(=O)O)c1 [sDIDS, 4-amino-4′-isothiocyanato-stilbene-2,2′-disulfonic acid]
[1]; blood cells of CF patients
  activation of anion conductivity (iodide, bromide, chloride, fluoride, gluconate, rhodanate, taurine): no conductivity
[1]; blood of 48 CF patients
  degree of hemolysis after sDIDS application: only a slight increase
[1]; blood of 148 healthy volunteers
  degree of hemolysis after addition of sDIDS: unambiguous increase
[1]; umbilical cord blood of 82 newborns
  degree of hemolysis after addition of sDIDS: unambiguous increase
[4]
  conductivity of the cytomembrane / current after removal (post control): decreases
  conductivity of the cytomembrane / current during treatment: reversible activatibility of a conductivity; also recorded: increases
